{
  "source": "PubChem BioAssay AID1963853",
  "about": "(Molecular Pharmacology Branch, DTP, NCI, 2024);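 also: spheroids exposed to compounds for seven days before readout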",
  "tested_on": "266295-075-R-J1-PDC spheroid viability",
  "assay": "Anticancer human tumor 266295-075-R-J1-PDC patient-derived head and neck squamous carcinoma cell line growth inhibition [POLQ]",
  "details": "spheroids with HUVEC and MSC; for IC50: curve of first compound; for viability, T/C: stronger effect = lower value",
  "in_short": "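Patient-derived tumour cells were co-cultured with HUVEC and mesenchymal stem cells as multicellular spheroids at 37 °C. They were treated with POLQ inhibitors (novobiocin, ART-558, RP6685) alone or combined with other agents. Top concentrations were at or near clinical Cmax (otherwise 10 microM; SN-38 at 1 microM), decreasing in half-log steps.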",
  "key": {"[1]": {"details": "second compound 0.0316 µM, first compound 0.0316 µM"}, "[2]": {"details": "second compound 0.0316 µM, first compound 0.1 µM"}, "[3]": {"details": "second compound 0.0316 µM, first compound 0.316 µM"}, "[4]": {"details": "second compound 0.0316 µM, first compound 1 µM"}, "[5]": {"details": "second compound 0.0316 µM, first compound 3.16 µM"}, "[6]": {"details": "second compound 0.0316 µM, first compound 10 µM"}, "[7]": {"details": "second compound 0.1 µM, first compound 0.0316 µM"}, "[8]": {"details": "second compound 0.1 µM, first compound 0.1 µM"}, "[9]": {"details": "second compound 0.1 µM, first compound 0.316 µM"}, "[10]": {"details": "second compound 0.1 µM, first compound 1 µM"}, "[11]": {"details": "second compound 0.1 µM, first compound 3.16 µM"}, "[12]": {"details": "second compound 0.1 µM, first compound 10 µM"}, "[13]": {"details": "second compound 0.316 µM, first compound 0.0316 µM"}, "[14]": {"details": "second compound 0.316 µM, first compound 0.1 µM"}, "[15]": {"details": "second compound 0.316 µM, first compound 0.316 µM"}, "[16]": {"details": "second compound 0.316 µM, first compound 1 µM"}, "[17]": {"details": "second compound 0.316 µM, first compound 3.16 µM"}, "[18]": {"details": "second compound 0.316 µM, first compound 10 µM"}, "[19]": {"details": "second compound 1 µM, first compound 0.0316 µM"}, "[20]": {"details": "second compound 1 µM, first compound 0.1 µM"}, "[21]": {"details": "second compound 1 µM, first compound 0.316 µM"}, "[22]": {"details": "second compound 1 µM, first compound 1 µM"}, "[23]": {"details": "second compound 1 µM, first compound 3.16 µM"}, "[24]": {"details": "second compound 1 µM, first compound 10 µM"}, "[25]": {"details": "second compound 3.16 µM, first compound 0.0316 µM"}, "[26]": {"details": "second compound 3.16 µM, first compound 0.1 µM"}, "[27]": {"details": "second compound 3.16 µM, first compound 0.316 µM"}, "[28]": {"details": "second compound 3.16 µM, first compound 1 µM"}, "[29]": {"details": "second compound 3.16 µM, first compound 3.16 µM"}, "[30]": {"details": "second compound 3.16 µM, first compound 10 µM"}, "[31]": {"details": "second compound 10 µM, first compound 0.0316 µM"}, "[32]": {"details": "second compound 10 µM, first compound 0.1 µM"}, "[33]": {"details": "second compound 10 µM, first compound 0.316 µM"}, "[34]": {"details": "second compound 10 µM, first compound 1 µM"}, "[35]": {"details": "second compound 10 µM, first compound 3.16 µM"}, "[36]": {"details": "second compound 10 µM, first compound 10 µM"}},
  "data": [
    {"smiles": "C=CC(=O)N1CCN(c2nc(=O)n(-c3c(C)ccnc3C(C)C)c3nc(-c4c(O)cccc4F)c(F)cc23)C(C)C1", "note": "(centres undefined) + COC1C(OC(N)=O)C(O)C(Oc2ccc3c(O)c(NC(=O)c4ccc(O)c(CC=C(C)C)c4)c(=O)oc3c2C)OC1(C)C", "values": [
      {"measurement": "IC50", "setting": "second compound 0.0316 µM", "result": "> 10", "unit": "µM"},
      {"measurement": "IC50", "setting": "second compound 0.1 µM", "result": "> 10", "unit": "µM"},
      {"measurement": "IC50", "setting": "second compound 0.316 µM", "result": "> 10", "unit": "µM"},
      {"measurement": "IC50", "setting": "second compound 1 µM", "result": "> 10", "unit": "µM"},
      {"measurement": "IC50", "setting": "second compound 3.16 µM", "result": "> 10", "unit": "µM"},
      {"measurement": "IC50", "setting": "second compound 10 µM", "result": "> 10", "unit": "µM"},
      {"measurement": "viability, T/C", "setting": "[1]", "result": 88.8, "unit": "%"},
      {"measurement": "viability, T/C", "setting": "[2]", "result": 94.7, "unit": "%"},
      {"measurement": "viability, T/C", "setting": "[3]", "result": 133, "unit": "%"},
      {"measurement": "viability, T/C", "setting": "[4]", "result": 118, "unit": "%"},
      {"measurement": "viability, T/C", "setting": "[5]", "result": 112, "unit": "%"},
      {"measurement": "viability, T/C", "setting": "[6]", "result": 112, "unit": "%"},
      {"measurement": "viability, T/C", "setting": "[7]", "result": 98.7, "unit": "%"},
      {"measurement": "viability, T/C", "setting": "[8]", "result": 90.6, "unit": "%"},
      {"measurement": "viability, T/C", "setting": "[9]", "result": 94, "unit": "%"},
      {"measurement": "viability, T/C", "setting": "[10]", "result": 104, "unit": "%"},
      {"measurement": "viability, T/C", "setting": "[11]", "result": 96, "unit": "%"},
      {"measurement": "viability, T/C", "setting": "[12]", "result": 129, "unit": "%"},
      {"measurement": "viability, T/C", "setting": "[13]", "result": 96.9, "unit": "%"},
      {"measurement": "viability, T/C", "setting": "[14]", "result": 103, "unit": "%"},
      {"measurement": "viability, T/C", "setting": "[15]", "result": 104, "unit": "%"},
      {"measurement": "viability, T/C", "setting": "[16]", "result": 106, "unit": "%"},
      {"measurement": "viability, T/C", "setting": "[17]", "result": 125, "unit": "%"},
      {"measurement": "viability, T/C", "setting": "[18]", "result": 105, "unit": "%"},
      {"measurement": "viability, T/C", "setting": "[19]", "result": 85.9, "unit": "%"},
      {"measurement": "viability, T/C", "setting": "[20]", "result": 114, "unit": "%"},
      {"measurement": "viability, T/C", "setting": "[21]", "result": 93.4, "unit": "%"},
      {"measurement": "viability, T/C", "setting": "[22]", "result": 106, "unit": "%"},
      {"measurement": "viability, T/C", "setting": "[23]", "result": 139, "unit": "%"},
      {"measurement": "viability, T/C", "setting": "[24]", "result": 124, "unit": "%"},
      {"measurement": "viability, T/C", "setting": "[25]", "result": 92.2, "unit": "%"},
      {"measurement": "viability, T/C", "setting": "[26]", "result": 98.4, "unit": "%"},
      {"measurement": "viability, T/C", "setting": "[27]", "result": 108, "unit": "%"},
      {"measurement": "viability, T/C", "setting": "[28]", "result": 112, "unit": "%"},
      {"measurement": "viability, T/C", "setting": "[29]", "result": 116, "unit": "%"},
      {"measurement": "viability, T/C", "setting": "[30]", "result": 117, "unit": "%"},
      {"measurement": "viability, T/C", "setting": "[31]", "result": 97, "unit": "%"},
      {"measurement": "viability, T/C", "setting": "[32]", "result": 79.3, "unit": "%"},
      {"measurement": "viability, T/C", "setting": "[33]", "result": 92.5, "unit": "%"},
      {"measurement": "viability, T/C", "setting": "[34]", "result": 122, "unit": "%"},
      {"measurement": "viability, T/C", "setting": "[35]", "result": 109, "unit": "%"},
      {"measurement": "viability, T/C", "setting": "[36]", "result": 114, "unit": "%"}
    ]},
    {"smiles": "CC1COCCN1c1cc(-c2ccnn2C)c2ccnc(-c3ccn[nH]3)c2n1", "note": "(centres undefined) + COC1C(OC(N)=O)C(O)C(Oc2ccc3c(O)c(NC(=O)c4ccc(O)c(CC=C(C)C)c4)c(=O)oc3c2C)OC1(C)C", "values": [
      {"measurement": "IC50", "setting": "second compound 0.0316 µM", "result": 4.35, "unit": "µM"},
      {"measurement": "IC50", "setting": "second compound 0.1 µM", "result": 2.01, "unit": "µM"},
      {"measurement": "IC50", "setting": "second compound 0.316 µM", "result": 1.91, "unit": "µM"},
      {"measurement": "IC50", "setting": "second compound 1 µM", "result": 3.89, "unit": "µM"},
      {"measurement": "IC50", "setting": "second compound 3.16 µM", "result": 4.51, "unit": "µM"},
      {"measurement": "IC50", "setting": "second compound 10 µM", "result": 1.97, "unit": "µM"},
      {"measurement": "viability, T/C", "setting": "[1]", "result": 91.2, "unit": "%"},
      {"measurement": "viability, T/C", "setting": "[2]", "result": 84.7, "unit": "%"},
      {"measurement": "viability, T/C", "setting": "[3]", "result": 71.2, "unit": "%"},
      {"measurement": "viability, T/C", "setting": "[4]", "result": 63.3, "unit": "%"},
      {"measurement": "viability, T/C", "setting": "[5]", "result": 54.3, "unit": "%"},
      {"measurement": "viability, T/C", "setting": "[6]", "result": 42.1, "unit": "%"},
      {"measurement": "viability, T/C", "setting": "[7]", "result": 91.7, "unit": "%"},
      {"measurement": "viability, T/C", "setting": "[8]", "result": 92.2, "unit": "%"},
      {"measurement": "viability, T/C", "setting": "[9]", "result": 65.8, "unit": "%"},
      {"measurement": "viability, T/C", "setting": "[10]", "result": 58, "unit": "%"},
      {"measurement": "viability, T/C", "setting": "[11]", "result": 48.4, "unit": "%"},
      {"measurement": "viability, T/C", "setting": "[12]", "result": 41.6, "unit": "%"},
      {"measurement": "viability, T/C", "setting": "[13]", "result": 89.9, "unit": "%"},
      {"measurement": "viability, T/C", "setting": "[14]", "result": 90.6, "unit": "%"},
      {"measurement": "viability, T/C", "setting": "[15]", "result": 63.7, "unit": "%"},
      {"measurement": "viability, T/C", "setting": "[16]", "result": 61.3, "unit": "%"},
      {"measurement": "viability, T/C", "setting": "[17]", "result": 43.6, "unit": "%"},
      {"measurement": "viability, T/C", "setting": "[18]", "result": 38.7, "unit": "%"},
      {"measurement": "viability, T/C", "setting": "[19]", "result": 110, "unit": "%"},
      {"measurement": "viability, T/C", "setting": "[20]", "result": 91.2, "unit": "%"},
      {"measurement": "viability, T/C", "setting": "[21]", "result": 79.1, "unit": "%"},
      {"measurement": "viability, T/C", "setting": "[22]", "result": 62.5, "unit": "%"},
      {"measurement": "viability, T/C", "setting": "[23]", "result": 53.3, "unit": "%"},
      {"measurement": "viability, T/C", "setting": "[24]", "result": 41, "unit": "%"},
      {"measurement": "viability, T/C", "setting": "[25]", "result": 98.2, "unit": "%"},
      {"measurement": "viability, T/C", "setting": "[26]", "result": 82.8, "unit": "%"},
      {"measurement": "viability, T/C", "setting": "[27]", "result": 77.2, "unit": "%"},
      {"measurement": "viability, T/C", "setting": "[28]", "result": 63.9, "unit": "%"},
      {"measurement": "viability, T/C", "setting": "[29]", "result": 53.9, "unit": "%"},
      {"measurement": "viability, T/C", "setting": "[30]", "result": 41.9, "unit": "%"},
      {"measurement": "viability, T/C", "setting": "[31]", "result": 87.6, "unit": "%"},
      {"measurement": "viability, T/C", "setting": "[32]", "result": 94.7, "unit": "%"},
      {"measurement": "viability, T/C", "setting": "[33]", "result": 75.7, "unit": "%"},
      {"measurement": "viability, T/C", "setting": "[34]", "result": 57.1, "unit": "%"},
      {"measurement": "viability, T/C", "setting": "[35]", "result": 47.8, "unit": "%"},
      {"measurement": "viability, T/C", "setting": "[36]", "result": 38.1, "unit": "%"}
    ]}
  ]
}
